Values quoted from earlier work, collected in patent publication US20230104358A1 (priority 2021, published 2023).

Columns and labels:
[1] = target: dopamine Type 2 (D2) receptor (Homo sapiens, UniProt P14416)
[2] = tested on: α1 adrenergic receptor
[3] = tested on: α2 adrenergic receptor
[4] = target: T1, serotonin 5HT1C receptor (Homo sapiens, UniProt P28335)
T1 sequence (P28335 33-458): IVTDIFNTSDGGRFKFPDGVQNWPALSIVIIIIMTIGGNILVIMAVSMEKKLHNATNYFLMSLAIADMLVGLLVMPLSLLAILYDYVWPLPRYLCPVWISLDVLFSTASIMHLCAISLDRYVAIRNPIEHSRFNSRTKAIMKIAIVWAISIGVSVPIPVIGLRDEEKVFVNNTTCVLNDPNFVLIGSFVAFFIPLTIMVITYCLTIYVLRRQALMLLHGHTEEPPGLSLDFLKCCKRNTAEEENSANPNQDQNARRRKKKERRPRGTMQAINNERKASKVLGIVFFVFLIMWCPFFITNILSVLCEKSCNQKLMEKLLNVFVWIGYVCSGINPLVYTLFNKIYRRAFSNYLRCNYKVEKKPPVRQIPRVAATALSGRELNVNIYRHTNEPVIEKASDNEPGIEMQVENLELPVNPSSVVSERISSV

[5] = target: serotonin 5HT1D receptor (Homo sapiens, UniProt P28221)
Sequence of serotonin 5HT1D receptor (P28221 whole entry): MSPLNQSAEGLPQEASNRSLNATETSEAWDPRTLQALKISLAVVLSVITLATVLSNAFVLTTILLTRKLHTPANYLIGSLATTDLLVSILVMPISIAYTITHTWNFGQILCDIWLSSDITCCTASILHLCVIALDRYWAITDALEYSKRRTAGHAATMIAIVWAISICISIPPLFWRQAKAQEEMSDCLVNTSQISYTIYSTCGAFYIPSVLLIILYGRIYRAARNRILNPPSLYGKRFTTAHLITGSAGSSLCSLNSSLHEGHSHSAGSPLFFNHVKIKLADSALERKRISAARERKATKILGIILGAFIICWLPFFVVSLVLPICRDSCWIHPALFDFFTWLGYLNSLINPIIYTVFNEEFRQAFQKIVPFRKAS

[6] = target: T2, serotonin 5HT1A receptor (Homo sapiens, UniProt P08908)
T2 sequence (P08908 1-422): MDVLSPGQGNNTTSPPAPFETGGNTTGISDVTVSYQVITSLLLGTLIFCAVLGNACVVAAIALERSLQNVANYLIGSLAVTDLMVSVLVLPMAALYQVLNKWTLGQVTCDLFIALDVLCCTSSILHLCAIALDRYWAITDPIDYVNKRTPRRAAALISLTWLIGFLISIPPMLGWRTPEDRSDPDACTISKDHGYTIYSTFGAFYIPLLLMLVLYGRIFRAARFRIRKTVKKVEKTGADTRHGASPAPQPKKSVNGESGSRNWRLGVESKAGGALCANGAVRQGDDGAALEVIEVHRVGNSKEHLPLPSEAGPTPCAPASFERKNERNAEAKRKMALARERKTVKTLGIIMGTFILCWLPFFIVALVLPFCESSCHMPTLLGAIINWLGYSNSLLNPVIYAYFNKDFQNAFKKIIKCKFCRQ

[7] = target: dopamine D1 (Homo sapiens, UniProt P21728)
Sequence of dopamine D1 (P21728 whole entry): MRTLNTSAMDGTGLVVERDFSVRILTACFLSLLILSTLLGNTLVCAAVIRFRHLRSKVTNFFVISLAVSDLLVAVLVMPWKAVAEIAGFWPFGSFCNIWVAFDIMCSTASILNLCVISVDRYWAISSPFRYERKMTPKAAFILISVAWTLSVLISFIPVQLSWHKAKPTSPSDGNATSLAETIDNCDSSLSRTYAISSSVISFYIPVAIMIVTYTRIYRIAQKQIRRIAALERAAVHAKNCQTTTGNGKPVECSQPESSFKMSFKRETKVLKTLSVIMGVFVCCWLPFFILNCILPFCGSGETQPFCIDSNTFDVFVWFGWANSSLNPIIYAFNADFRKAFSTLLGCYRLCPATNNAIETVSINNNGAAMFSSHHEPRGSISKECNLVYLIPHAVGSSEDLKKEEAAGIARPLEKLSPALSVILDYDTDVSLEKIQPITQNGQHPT

[8] = tested on: haloperidol-sensitive sigma site
[9] = target: β1 adrenergic receptor (Homo sapiens, UniProt P08588)
Sequence of β1 adrenergic receptor (P08588 whole entry): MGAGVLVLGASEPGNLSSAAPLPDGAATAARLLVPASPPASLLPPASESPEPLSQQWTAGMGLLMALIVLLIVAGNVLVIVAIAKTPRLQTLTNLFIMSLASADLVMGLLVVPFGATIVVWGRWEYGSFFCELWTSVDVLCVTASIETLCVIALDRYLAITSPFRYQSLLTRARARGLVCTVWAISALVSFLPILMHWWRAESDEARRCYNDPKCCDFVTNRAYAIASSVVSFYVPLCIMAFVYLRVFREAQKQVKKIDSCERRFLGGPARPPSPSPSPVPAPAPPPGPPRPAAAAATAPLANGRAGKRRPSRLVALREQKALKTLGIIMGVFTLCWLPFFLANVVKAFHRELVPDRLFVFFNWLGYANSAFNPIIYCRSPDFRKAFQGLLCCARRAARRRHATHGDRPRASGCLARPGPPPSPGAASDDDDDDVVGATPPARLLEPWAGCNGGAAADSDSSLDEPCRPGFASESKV

[10] = target: β2 adrenergic receptor (Homo sapiens, UniProt P07550)
Sequence of β2 adrenergic receptor (P07550 whole entry): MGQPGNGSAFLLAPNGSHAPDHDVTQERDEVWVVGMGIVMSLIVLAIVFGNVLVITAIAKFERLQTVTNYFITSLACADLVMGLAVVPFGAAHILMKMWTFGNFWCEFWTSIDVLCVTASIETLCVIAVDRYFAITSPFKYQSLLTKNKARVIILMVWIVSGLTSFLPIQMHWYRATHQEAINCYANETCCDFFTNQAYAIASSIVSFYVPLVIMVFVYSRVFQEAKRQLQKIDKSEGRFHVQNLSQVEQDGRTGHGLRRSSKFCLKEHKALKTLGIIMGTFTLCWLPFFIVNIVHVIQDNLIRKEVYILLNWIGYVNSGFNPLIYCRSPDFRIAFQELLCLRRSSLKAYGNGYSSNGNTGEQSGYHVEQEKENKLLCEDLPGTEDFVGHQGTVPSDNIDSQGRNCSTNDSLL

Sequence of dopamine Type 2 (D2) receptor (P14416 whole entry): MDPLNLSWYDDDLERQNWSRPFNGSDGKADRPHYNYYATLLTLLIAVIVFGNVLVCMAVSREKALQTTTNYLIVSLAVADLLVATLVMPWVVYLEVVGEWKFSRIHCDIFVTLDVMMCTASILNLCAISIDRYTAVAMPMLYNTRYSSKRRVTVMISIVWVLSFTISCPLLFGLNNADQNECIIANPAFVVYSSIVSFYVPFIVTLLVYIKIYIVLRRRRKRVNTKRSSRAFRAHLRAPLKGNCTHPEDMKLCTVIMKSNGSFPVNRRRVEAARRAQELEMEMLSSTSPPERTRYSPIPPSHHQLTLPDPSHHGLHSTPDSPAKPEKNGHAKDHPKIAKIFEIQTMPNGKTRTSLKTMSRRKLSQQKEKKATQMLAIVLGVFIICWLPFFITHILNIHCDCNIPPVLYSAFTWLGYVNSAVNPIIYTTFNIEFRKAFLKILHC

Structure (SMILES): Cc1nc2n(c(=O)c1CCN1CCC(c3noc4cc(F)ccc34)CC1)CCCC2 [Risperidone]
- affinity for dopamine Type 2 (D2) receptor [1]: high affinity
- affinity for α1 adrenergic receptor [2]: high affinity
- affinity for α2 adrenergic receptor [3]: high affinity
- affinity for serotonin 5HT1C receptor [4]: low to moderate affinity
- affinity for serotonin 5HT1D receptor [5]: low to moderate affinity
- affinity for serotonin 5HT1A receptor [6]: low to moderate affinity
- affinity for dopamine D1 [7]: weak affinity
- affinity for haloperidol-sensitive sigma site [8]: weak affinity
- affinity for β1 adrenergic receptor [9]: no affinity
- affinity for β2 adrenergic receptor [10]: no affinity
